The numbers were not newly measured in patent US12084679B2, “Methods of in vitro differentiation of midbrain dopamine (mDA) neurons” (MEMORIAL SLOAN-KETTERING CANCER CENTER, priority 2015, dated 2024), which cites them from elsewhere.

Structures are written as SMILES.

The subject of data set [1] is rodent GSK3β homologs.
Data set [2] addresses T1, ALK2 (Homo sapiens, UniProt Q04771).
T1 sequence (Q04771 21-509): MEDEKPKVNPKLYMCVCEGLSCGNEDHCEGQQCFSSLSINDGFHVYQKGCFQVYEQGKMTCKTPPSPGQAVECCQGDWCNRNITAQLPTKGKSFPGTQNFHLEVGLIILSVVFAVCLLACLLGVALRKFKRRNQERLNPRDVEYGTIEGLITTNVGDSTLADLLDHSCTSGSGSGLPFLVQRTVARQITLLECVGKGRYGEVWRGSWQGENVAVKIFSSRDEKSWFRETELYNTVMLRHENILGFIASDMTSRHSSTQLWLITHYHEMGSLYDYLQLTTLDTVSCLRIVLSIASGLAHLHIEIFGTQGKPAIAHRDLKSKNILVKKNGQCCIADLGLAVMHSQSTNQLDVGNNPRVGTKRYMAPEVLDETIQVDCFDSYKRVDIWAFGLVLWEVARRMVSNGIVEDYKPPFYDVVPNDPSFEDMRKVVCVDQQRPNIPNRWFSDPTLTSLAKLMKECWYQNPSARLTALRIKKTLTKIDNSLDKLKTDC

The target in data set [3] is ALK3 (Homo sapiens, UniProt P36894).
Sequence of ALK3 (P36894 24-532, species assumed): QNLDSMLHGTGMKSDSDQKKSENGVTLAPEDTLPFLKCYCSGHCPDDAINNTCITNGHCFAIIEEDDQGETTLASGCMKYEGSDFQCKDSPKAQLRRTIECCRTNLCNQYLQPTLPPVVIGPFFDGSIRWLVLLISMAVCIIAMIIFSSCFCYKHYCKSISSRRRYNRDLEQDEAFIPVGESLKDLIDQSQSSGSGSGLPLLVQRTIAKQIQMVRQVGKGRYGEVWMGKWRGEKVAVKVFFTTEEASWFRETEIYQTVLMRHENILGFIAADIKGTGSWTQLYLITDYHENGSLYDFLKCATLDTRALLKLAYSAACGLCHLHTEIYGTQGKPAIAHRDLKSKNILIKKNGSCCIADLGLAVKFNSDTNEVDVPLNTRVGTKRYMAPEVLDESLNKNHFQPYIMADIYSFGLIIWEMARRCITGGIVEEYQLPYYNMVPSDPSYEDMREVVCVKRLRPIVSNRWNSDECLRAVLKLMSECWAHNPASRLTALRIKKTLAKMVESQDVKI
The target in data set [4] is ALK6 (Homo sapiens, UniProt O00238).
Sequence of ALK6 (O00238 14-502): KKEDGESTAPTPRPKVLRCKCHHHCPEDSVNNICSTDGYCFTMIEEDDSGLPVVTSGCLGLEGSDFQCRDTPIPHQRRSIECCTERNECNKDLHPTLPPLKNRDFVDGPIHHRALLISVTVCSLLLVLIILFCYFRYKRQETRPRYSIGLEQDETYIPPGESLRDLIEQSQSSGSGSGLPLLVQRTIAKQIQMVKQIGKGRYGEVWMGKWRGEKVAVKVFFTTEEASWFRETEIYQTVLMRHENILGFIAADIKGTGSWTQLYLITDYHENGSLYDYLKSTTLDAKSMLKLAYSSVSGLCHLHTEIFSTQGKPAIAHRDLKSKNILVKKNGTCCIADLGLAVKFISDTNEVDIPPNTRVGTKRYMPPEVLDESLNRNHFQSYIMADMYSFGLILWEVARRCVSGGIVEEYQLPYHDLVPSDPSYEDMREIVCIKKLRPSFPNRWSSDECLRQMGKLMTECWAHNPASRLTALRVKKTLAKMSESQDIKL

For the compound `Cc1c[nH]c(-c2cnc(NCCNc3ccc(C#N)cn3)nc2-c2ccc(Cl)cc2Cl)n1` [CHIR99021, 6-(2-(4-(2,4-dichlorophenyl)-5-(4-methyl-H-imidazol-2-yl)pyrimidin-2-ylamino)ethylamino)nicotinonitrile], in data set [1], the “IC50 values against rodent GSK3β homologs” value is listed as “nanomolar”.

For the compound `c1ccc2c(-c3cnn4cc(-c5ccc(N6CCNCC6)cc5)cnc34)ccnc2c1` [LDN193189, 4-(6-(4-(piperazin-1-yl)phenyl)pyrazolo[1,5-a]pyrimidin-3-yl)quinoline], the “inhibitor of ALK2” value in data set [2] was “highly potent”. Besides, the “inhibitor of ALK3” value in data set [3] is recorded as “highly potent”. In data set [4], the “inhibitor of ALK6” value is “highly potent”.
